{"source": "patent US20100158973A1", "about": "(HADASIT MEDICAL RESEARCH SERVICES & DEVELOPMENT LlIMITED, priority 2006, published 2010)", "key": {"[1]": {"test_system": "SD/Hsd male rats, surgically induced infarct", "assay": "Histopathology of infarcted hearts (hematoxylin and eosin, Masson trichrome)", "assay_type": "in vivo"}, "[2]": {"test_system": "SD/Hsd male rats, surgically induced infarct", "assay": "Infarct (scar) size after LAD ligation, Evans blue/TTC staining and planimetry", "assay_type": "in vivo"}, "[3]": {"test_system": "ApoE−/− mice", "assay": "Plasma triglyceride levels in ApoE−/− mice on high-fat diet", "details": "20 IP injections of 5 mg/kg, 12 h fasting", "experimental": "(§1) Twelve- to fourteen-week-old male and female ApoE ApoE^−/− mice on a C57B1/6 background were fed a high-fat diet (Takland adjusted calories, Western-type diet: 2.1% fat, 15% cholesterol, 19.5% casein) for 12 weeks.\nBlood samples were collected in capillary tubes following twelve hours of fasting, and immediately centrifuged for plasma removal.\n(§2) Control mice were injected with Cremophor:ethanol:saline 1:1:18. Plasma triglyceride levels were assayed following twelve hours fasting using an enzymatic reagent (Sigma™)."}, "[4]": {"test_system": "ApoE−/− mice", "assay": "LDL cholesterol levels in ApoE−/− mice (Friedewald formula)", "details": "high-fat diet, 20 IP injections of 5 mg/kg", "experimental": "as §1\nBlood samples were collected in capillary tubes following twelve hours of fasting, and immediately centrifuged for plasma removal. Plasma samples were assayed for total cholesterol using conventional colorimetric assays.\nas §2\nLDLc=TC−triglycerides levels/5-HDLc\nStatistical analysis was by ANOVA test (ANalysis Of VAriance between groups)."}, "[5]": {"test_system": "SD/Hsd male rats, surgically induced infarct", "assay": "Echocardiography before and 7 days after LAD ligation", "details": "for LVEDD (left ventricular end-diastolic diameter) / LVESD (left ventricular end-systolic diameter) / SF (shortening fraction): CBD group", "experimental": "In the following experiment 14 SD/Hsd male rats weighing 275-350 g were used.\nRats were anesthetized with ketamine (10%): xylazine (2%), 0.85:0.15 IM 0.1 ml/kg. Animals were intubated and ventilated with a small animal respirator (Harvard Sc.). The heart was exposed via left sternotomy and the LAD was reversibly occluded for 30 minutes using a snare fashioned from an encircling silk ligature and a section of 5 French feeding tube. Coronary occlusion and reperfusion were verified by visual inspection. Following reperfusion the released ligature was left in situ. The chest was then closed in layers using uninterrupted sutures. Rats were extubated, received 30-50 cc saline subcutaneously to replace lost body fluids, and were treated with Rymadil (5 mg/kg, i.p.) analgesia for 3 days. […] The drug and the vehicle solutions were prepared in separate laboratories, ensuring that the staff (e.g. echocardiography and pathology) was blinded to the treatment arm. After 7 days, animals were re-anesthetized and ventilated as described above. The LAD was permanently re-occluded, and the heart harvested for further analysis.\nRats were anesthetized with Ketamine (10%):Xylasine (2%), 0.85:0.15 IM 0.1 ml/kg and the chest cavity was shaved. Echo was carried out prior to surgery and 1 week after, prior to sacrifice of the animals.\nEcho imaging was performed using a GE Vivid3 platform, equipped with a 13 MHz linear epiaortic transducer (General Electric, Haifa, Israel). The probe was positioned in a left parasternal position, and 2D imaging of the heart in the short axis was performed using a high frame rate. This image was used to guide an M-mode cursor down the medial axis of the left ventricle. Measurements were performed in triplicates using the leading edge convention for myocardial borders.\nThe following parameters were measured: Left ventricular end-diastolic diameter (LVEDD) Left ventricular end-systolic diameter (LVESD); anterior wall thickness in diastole and systole (AWTd, AWTs); and Heart rate (HR).\nShortening fraction (SF) was calculated using the above variables."}, "[6]": {"test_system": "ApoE−/− mice", "assay": "Size of atherosclerotic plaques in the aorta of ApoE−/− mice", "experimental": "ApoE knock-out (ApoE^−/−) mice are known to spontaneously develop atherosclerosis, which may be enhanced by a high-fat diet. Twelve- to fourteen-week-old male and female ApoE ApoE^−/− mice on a C57B1/6 background were fed a high-fat diet (Takland adjusted calories, Western-type diet: 2.1% fat, 15% cholesterol, 19.5% casein) for 12 weeks.\nBlood samples were collected in capillary tubes following twelve hours of fasting, and immediately centrifuged for plasma removal. Plasma samples were assayed for total cholesterol using conventional colorimetric assays. Mice were then sacrificed, and their aorta were extracted and examined for the presence and size of atherosclerotic lesions (plaques).\nas §2"}, "[7]": {"details": "Day 7 after LAD ligation, 5 mg/kg IP daily"}}, "note": "Where “and” joins values, the source holds several entries; their conditions need not be identical. Equal entries are not always repeated. Entries after “also recorded” stand apart in the source; their conditions may differ."}
{"substance": "Cannabidiol [CBD]", "values": [{"measurement": "inflammation in heart histology", "setting": "[1]; FIG. 4B, animal treated with CBD", "result": "almost total lack of inflammation"}, {"measurement": "granulation tissue formation with early collagen deposition vs control", "setting": "[1]; Masson trichrome staining", "result": "similar; also recorded: did not affect"}, {"measurement": "inflammatory infiltrate grade (leukocytes infiltrating the border of the infarcted zone)", "setting": "[1]; graded by pathologist, control animals 2-3", "result": "1+ or nullnil (0)"}, {"measurement": "% infarct size", "setting": "[2]; individual animals of CBD-treated group", "result": "16.3% and 15.3% and 14.6% and 13.9% and 6.5% and 7.5% and 7.6% (2×) and 8.1% and 7.8%"}, {"measurement": "mean infarct size as percent of area at risk", "setting": "[2]; rats, 5 mg/kg IP 1 h before surgery and daily, 7 days, control 28.2±7.0%", "result": "9.6±3.9", "unit": "%"}, {"measurement": "lowering of plasma triglyceride levels compared with control-treated mice", "setting": "[3]", "result": 59, "unit": "%"}, {"measurement": "lowering of LDL levels vs control", "setting": "[4]", "result": 17, "unit": "%"}, {"measurement": "LDL cholesterol level", "setting": "[4]; calculated by Friedewald formula", "result": 1300, "unit": "mg/dL"}, {"measurement": "LVEDD (left ventricular end-diastolic diameter)", "setting": "[5]; Day 0 (baseline)", "result": "0.70 ± 0.06", "unit": "mm"}, {"measurement": "LVESD (left ventricular end-systolic diameter)", "setting": "[5]; Day 0 (baseline)", "result": "0.36 ± 0.08", "unit": "mm"}, {"measurement": "SF (shortening fraction)", "setting": "[5]; Day 0 (baseline)", "result": "48.27±8.6", "unit": "%"}, {"measurement": "LVEDD (left ventricular end-diastolic diameter)", "setting": "[5]; [7]", "result": "0.72 ± 0.05", "unit": "mm"}, {"measurement": "LVESD (left ventricular end-systolic diameter)", "setting": "[5]; [7]", "result": "0.43 ± 0.07", "unit": "mm"}, {"measurement": "SF (shortening fraction)", "setting": "[5]; Day 7 after LAD ligation, 5 mg/kg IP daily, 5 mg/kg", "result": "39.7±8.22", "unit": "%"}, {"measurement": "LV function in M mode echocardiography", "setting": "[5]; FIG. 4D, CBD-treated animal", "result": "preserved LV function"}, {"measurement": "atherosclerotic plaques, average % of the aorta area", "setting": "[6]; first experiment, 12 CBD-treated mice, control 5.5%", "result": 3.18, "unit": "%"}, {"measurement": "plaque area, % of the total aorta area", "setting": "[6]; second experiment, control 10.6%", "result": 5.09, "unit": "%"}]}
